Source: ChEMBL document CHEMBL1152159, “Possible involvement of radical intermediates in the inhibition of cysteine proteases by allenyl esters and amides” (Bioorg Med Chem Lett, 2008)

Key:
[1] = Inhibition of urease
[2] = tested on: Rattus norvegicus; assay: Inhibition of water-immersion stress-induced ulcer formation in rat at 10 mg/kg; assay type: functional
[3] = biological target: Cathepsin B (Homo sapiens, UniProt P07858); assay: Inhibition of cathepsin B in oxygen free condition
[4] = tested on: Rattus norvegicus; assay: Inhibition of water-immersion stress-induced ulcer formation in rat at 1 mg/kg; assay type: functional
[5] = tested on: Rattus norvegicus; assay: Inhibition of water-immersion stress-induced ulcer formation in rat at 3 mg/kg; assay type: functional
[6] = tested on: Rattus norvegicus; assay: Inhibition of water-immersion stress-induced ulcer formation in rat at 30 mg/kg; conditions: read-out: INH
[7] = Dissociation constant, pKa of the compound; assay type: physicochemical

Molecule `CCOC(=O)C(C)=C=C(c1ccccc1)c1ccccc1` has an IC50 [1] of 1.1 µM, an inhibition in vivo at 10 mg/kg [2] of 87% and an IC50 [3] of 232 µM. The inhibition in vivo at 1 mg/kg [4] was 40% and the inhibition in vivo at 3 mg/kg [5] was 52%.

`CN/C(=N\CCSCc1nc[nH]c1C)NC#N` [CIMETIDINE] showed an inhibition in vivo at 30 mg/kg [6] of 74%.

For `NC(N)=Nc1nc(CSCC/C(N)=N/S(N)(=O)=O)cs1` [FAMOTIDINE], the inhibition in vivo at 3 mg/kg [5] was 59%.

Work on `N[C@@H](CCC(=O)N[C@@H](CS)C(=O)NCC(=O)O)C(=O)O` [GLUTATHIONE] yielded a pKa [7] of 8.7.
